Measurements as given in US20130324543A1, “REVERSAL OF HIGH BREAST CANCER RISK IN MAMMALS EXPOSED TO ESTROGENIC CHEMICALS IN UTERO BY ADULT EXPOSURE TO HDAC AND DNMT INHIBITORS” (Georgetown University, priority 2012, published 2013).

Legend:
mammary tumors = test: MPA/DMBA-induced mammary tumorigenesis in mice exposed in utero to EE2 or GEN, with or without adult HDAC+DNMT inhibitors; conditions: mouse, in vivo
Description: Time pregnant C57BL/6 female mice were obtained from Harlan (Harlan-Teclad, USA) on gestation day 6, and were randomly assigned into three groups on the following day (gestation day 7). The basic diet formulation in the study was a semi-purified AIN93G (the American Institute of Nutrition) modified to replace soy oil for corn oil; all the diets of the three treatment groups were also purchased from Harlan. The diets were isocaloric, as ethinyl estradiol (EE2) or genistein (GEN) were added in the diet at the expense of comstarch. Additions to the basic diet were as follows: 1) EE2 0.1 ppm, and 2) GEN 500 ppm. EE2 was purchased from Sigma Chemicals (St. Louis, Mo., USA), and GEN was a gift from Dr. William Helferich (University of Illinois, Urbana, Ill., USA).
The pregnant dams were fed these diets until the day of the delivery of their pups (Post Natal Day 0, PND 0). Starting on PND 0, all mice were fed the control diet until the end of the study. Female mice born from the dams fed with the different above mentioned diets were used in the subsequent studies. For study outline, see FIG. 12. Animals were housed in a temperature- and humidity-controlled room under a 12-hour light-dark cycle. All animal procedures were approved by the Georgetown University Animal Care and Use Committee, and the experiments were performed following the National Institutes of Health guidelines for the proper and humane use of animals in biomedical research.
Mammary tumors were induced by administration of a subcutaneous injection of Medroxyprogesterone Acetate (MPA) to mice at 6 weeks of age, followed by administration of 1 mg 7,12-dimethylbenz(a)anthracene (DMBA) (Sigma, St. Louis, Mo.) weekly for four weeks (weeks 7, 8, 9, 10) (23). The carcinogen was dissolved in corn oil and administered by oral gavage in a volume of ca. 0.1 ml.
One week after the last dose of DMBA was administered, some of the mice were started on hydralazine (5 mg/kg/day) and valproic acid treatments (1.16 g/kg/day) treatments.
The two compounds were given in a drinking water, which was prepared fresh twice a week. The doses were chosen based on the literature (24-26). The number of animals in each group is as follows: Control n=18, Control given HDAC+DNMT inhibitors n=9, EE2 n=9, EE2 given HDAC+DNMT inhibitors n=6, GEN n=14, and GEN given HDAC+DNMT inhibitors n=8.
Mice were examined for mammary tumors by palpation once per week. Tumor growth was monitored for 16 weeks after the last dose of DMBA administration. During the follow-up, animals in which tumor burden approximated 10% of total body weight were euthanized, as required by the ethical guidelines of our institution. All surviving animals were sacrificed at that point for sample collection. The end-points for tumor data analysis were (i) latency to tumor appearance, (ii) the number of animals with tumors (tumor incidence), and (iii) the cumulative tumor area (tumor burden). The latter was achieved by adding the total tumor area per group each week and dividing it with the number of mice in the group.
Mammary tumor latency was compared with the final tumor burden in utero EE2 and GEN exposed mice to control mice, and in utero EE2 and GEN exposed mice to control mice exposed to HDAC+DNMT inhibitors separately; analysis was done using one-way ANOVA. Cumulative tumor burden during 16 weeks of tumor monitoring in the three groups, separately in those mice not given HDAC+DNMT inhibitors and those treated with the epigenetic drugs, was analysed using repeated measures one-way ANOVA. Log rank analysis was performed to compare mammary tumor incidence in the control and in utero EE2 and GEN exposed mice, again separately in those mice not given HDAC+DNMT inhibitors and those treated with the epigenetic drugs. Data for changes in DNMT1 expression among the groups in the mammary glands and tumors were assessed using two-way ANOVA, followed by Fisher LSD test

mammary gland = test: Mammary gland morphology of in utero exposed mice (whole mounts); format: in vivo, C57BL/6 mice; conditions: female mice, PND 27
Description: One of the two #4 abdominal mammary glands was dissected and fixed in Carnoy's fixative and processed into whole mounts as previously described (8). The other #4 abdominal gland was snap frozen in liquid nitrogen and stored in −80° C. for future analysis. One of the two thoracic #2-3 mammary glands was fixed in neutral buffered 10% formalin, embedded in paraffin and processed for histology using routine methods, and the other was snap frozen in liquid nitrogen, also stored in −80° C. for future analysis. Uterus was dissected, and one horn with the ovary and vagina attached was fixed in 10% formalin, embedded in paraffin and processed for histology, and the other horn and one ovary were frozen in liquid nitrogen and stored in −80° C.
To assess possible changes in mammary gland morphology, whole amounts of the 4th abdominal glands obtained on PND 27 were processed as previously described (4, 72). The total number of terminal end buds (TEBs) was counted. Identification of TEBs was based on the guidelines established by Russo and Russo (64). The total area (in pixels) of epithelium of the peripubertal (PND 27) mammary glands was analyzed by using ImageJ software (available through NIH web site) on digitized pictures of mammary whole mounts with ducts manually intensified black against white background (shown as an insert in FIG. 16). Ductal elongation (mammary epithelial outgrowth) on PND 50 was measured as the growth in millimeters from the end of the lymph node to the end of the epithelial tree. All the analyses were done blindly using an Olympus dissecting microscope.

DNA adducts = test: MDA-DNA adduct levels in mammary glands of F1-F3 rat offspring; format: in vivo, Sprague Dawley rats; conditions: F1-F3 generation offspring

Structure (SMILES): C#C[C@]1(O)CC[C@H]2[C@@H]3CCc4cc(O)ccc4[C@H]3CC[C@@]21C [EE2, ethinyl estradiol]
- Final tumor burden per mouse (mammary tumors): significantly higher
- Mammary tumor incidence (mammary tumors): significantly higher
- mammary tumorigenesis (mammary tumors): increased mammary tumorigenesis
- total epithelial area of the glands (mammary gland): significantly increased
- DNA adduct formation by measuring MDA levels (DNA adducts): mimicked the findings of changes in CYP1B1 expression
